We go through five molecules from US11331299B2, “Medicinal use of serrulatane diterpenes” (The University of Sydney, priority 2016, dated 2022).

The target of test [1] is T1, ASH1L (h) bromodomain (Homo sapiens, UniProt Q9NR48).
T1 construct: ASH1L (h) bromodomain
In words: Epigenetic binding assay, Bromodomain.

Test [2] concerns the target T2, KAT2A (GCN5L2) (h) bromodomain (Homo sapiens, UniProt Q92830).
T2 construct: Bromodomain
T2 sequence (Q92830 728-832 limits assumed): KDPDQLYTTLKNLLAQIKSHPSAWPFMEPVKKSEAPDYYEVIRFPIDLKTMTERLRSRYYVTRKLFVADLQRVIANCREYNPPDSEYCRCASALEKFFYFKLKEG
In words: Epigenetic binding assay, Bromodomain. As to conditions: Table 4; read-out: Reference IC50.

Test [3] concerns the target T3, PCAF (h) bromodomain (Homo sapiens, UniProt Q92831).
T3 construct: Bromodomain
T3 sequence (Q92831 723-827 limits assumed): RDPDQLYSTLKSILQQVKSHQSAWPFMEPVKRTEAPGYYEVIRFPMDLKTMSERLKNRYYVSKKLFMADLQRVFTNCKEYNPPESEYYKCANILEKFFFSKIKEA
The experiment in a line: Epigenetic binding assay, Bromodomain. The conditions noted are these: Table 4; read-out: Reference IC50.

The target in test [4] is T4, ATAD2A (h) bromodomain (Homo sapiens, UniProt Q6PL18).
T4 construct: Bromodomain
T4 sequence (Q6PL18 980-1092 limits assumed): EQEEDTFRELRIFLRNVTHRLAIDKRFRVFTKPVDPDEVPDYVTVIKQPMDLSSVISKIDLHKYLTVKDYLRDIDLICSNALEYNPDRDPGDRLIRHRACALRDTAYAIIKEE
In words: Epigenetic binding assay, Bromodomain. The conditions noted are these: Table 4; read-out: Reference IC50.

Test [5] has as its target T1, ASH1L (h) bromodomain. The conditions noted are these: ligand biotin-H4 di acetyl Lys 5/8 75 nM; 30 min/RT; AlphaScreen; read-out: Reference IC50; cited from earlier work. (In Alpha technology, singlet oxygen from a donor bead excites a nearby acceptor bead.)
Test [6] addresses T2, KAT2A (GCN5L2) (h) bromodomain. The conditions noted are these: ligand biotin-H4 tetra acetyl Lys 5/8/12/16 30 nM; 15 min/RT; AlphaScreen; read-out: Reference IC50; cited from earlier work.
In test [7] the target is T3, PCAF (h) bromodomain. As to conditions: ligand biotin-H4 tetra acetyl Lys 5/8/12/16 100 nM; 30 min/RT; AlphaScreen; read-out: Reference IC50; cited from earlier work.
Test [8] addresses T4, ATAD2A (h) bromodomain. The conditions noted are these: ligand biotin-H4 tetra acetyl Lys 5/8/12/16 100 nM; 30 min/RT; AlphaScreen; read-out: Reference IC50; cited from earlier work.
In test [9] the target is T5, GCN5L2(h) (Homo sapiens, UniProt Q92830). In words: Epigenetic enzyme assay, Histone acetyltransferases (HATs). In kind it is biochemical. As to conditions: Table 10; read-out: Reference IC50.
In test [10] the target is T5, GCN5L2(h). As to conditions: reference compound; biotin-H3K27me3 50 nM; 10 min/RT; LANCE; cited from earlier work. (TR-FRET usually uses a lanthanide donor and a delayed reading to cut background.)
Test [11] concerns the target T6, FBXL10 (h) (Homo sapiens, UniProt Q8NHM5).
T6 sequence (Q8NHM5 1-1336): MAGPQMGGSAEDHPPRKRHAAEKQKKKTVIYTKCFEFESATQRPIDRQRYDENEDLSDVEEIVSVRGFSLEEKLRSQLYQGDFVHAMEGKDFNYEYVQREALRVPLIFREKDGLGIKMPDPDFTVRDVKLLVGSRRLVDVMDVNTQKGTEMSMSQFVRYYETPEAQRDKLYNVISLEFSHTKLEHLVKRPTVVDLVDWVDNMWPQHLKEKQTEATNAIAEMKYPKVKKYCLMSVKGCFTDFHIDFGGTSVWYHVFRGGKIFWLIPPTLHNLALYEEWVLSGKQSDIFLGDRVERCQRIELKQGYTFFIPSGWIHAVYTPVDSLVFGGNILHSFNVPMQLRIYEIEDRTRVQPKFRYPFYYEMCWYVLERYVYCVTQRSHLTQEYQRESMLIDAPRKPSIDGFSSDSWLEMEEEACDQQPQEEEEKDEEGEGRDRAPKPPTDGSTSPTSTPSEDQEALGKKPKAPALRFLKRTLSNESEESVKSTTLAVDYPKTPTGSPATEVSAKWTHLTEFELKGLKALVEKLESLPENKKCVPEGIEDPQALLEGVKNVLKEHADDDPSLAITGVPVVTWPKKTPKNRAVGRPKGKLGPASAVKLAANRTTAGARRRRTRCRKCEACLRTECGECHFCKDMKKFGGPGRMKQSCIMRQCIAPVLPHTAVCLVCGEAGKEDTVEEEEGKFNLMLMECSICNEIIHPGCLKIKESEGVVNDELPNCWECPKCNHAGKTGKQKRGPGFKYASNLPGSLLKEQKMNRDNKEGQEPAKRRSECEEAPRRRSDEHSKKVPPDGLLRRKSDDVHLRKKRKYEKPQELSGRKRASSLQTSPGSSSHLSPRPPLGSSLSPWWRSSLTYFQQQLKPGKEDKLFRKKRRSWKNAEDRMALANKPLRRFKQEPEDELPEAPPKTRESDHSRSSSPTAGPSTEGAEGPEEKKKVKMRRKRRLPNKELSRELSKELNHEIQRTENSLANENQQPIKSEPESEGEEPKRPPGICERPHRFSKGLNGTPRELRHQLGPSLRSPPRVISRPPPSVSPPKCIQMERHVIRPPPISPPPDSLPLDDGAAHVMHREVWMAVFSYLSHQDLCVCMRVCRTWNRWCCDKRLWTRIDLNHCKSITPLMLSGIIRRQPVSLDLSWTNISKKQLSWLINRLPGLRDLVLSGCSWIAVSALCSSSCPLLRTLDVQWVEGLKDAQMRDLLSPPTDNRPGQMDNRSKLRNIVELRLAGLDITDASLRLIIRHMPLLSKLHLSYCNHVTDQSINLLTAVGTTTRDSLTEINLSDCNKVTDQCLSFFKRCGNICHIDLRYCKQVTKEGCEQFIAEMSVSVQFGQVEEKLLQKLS
In words: Epigenetic enzyme assay, Demethylases (KDMs). In kind it is biochemical. As to conditions: read-out: Reference IC50.

For test [12], the target named is T7, JARID1A (h) (Homo sapiens, UniProt P29375). In words: Epigenetic enzyme assay, Demethylases (KDMs). In kind it is biochemical.
Test [13] addresses T8, JMJD2B (h) (Homo sapiens, UniProt O94953).
T8 sequence (O94953 1-1096): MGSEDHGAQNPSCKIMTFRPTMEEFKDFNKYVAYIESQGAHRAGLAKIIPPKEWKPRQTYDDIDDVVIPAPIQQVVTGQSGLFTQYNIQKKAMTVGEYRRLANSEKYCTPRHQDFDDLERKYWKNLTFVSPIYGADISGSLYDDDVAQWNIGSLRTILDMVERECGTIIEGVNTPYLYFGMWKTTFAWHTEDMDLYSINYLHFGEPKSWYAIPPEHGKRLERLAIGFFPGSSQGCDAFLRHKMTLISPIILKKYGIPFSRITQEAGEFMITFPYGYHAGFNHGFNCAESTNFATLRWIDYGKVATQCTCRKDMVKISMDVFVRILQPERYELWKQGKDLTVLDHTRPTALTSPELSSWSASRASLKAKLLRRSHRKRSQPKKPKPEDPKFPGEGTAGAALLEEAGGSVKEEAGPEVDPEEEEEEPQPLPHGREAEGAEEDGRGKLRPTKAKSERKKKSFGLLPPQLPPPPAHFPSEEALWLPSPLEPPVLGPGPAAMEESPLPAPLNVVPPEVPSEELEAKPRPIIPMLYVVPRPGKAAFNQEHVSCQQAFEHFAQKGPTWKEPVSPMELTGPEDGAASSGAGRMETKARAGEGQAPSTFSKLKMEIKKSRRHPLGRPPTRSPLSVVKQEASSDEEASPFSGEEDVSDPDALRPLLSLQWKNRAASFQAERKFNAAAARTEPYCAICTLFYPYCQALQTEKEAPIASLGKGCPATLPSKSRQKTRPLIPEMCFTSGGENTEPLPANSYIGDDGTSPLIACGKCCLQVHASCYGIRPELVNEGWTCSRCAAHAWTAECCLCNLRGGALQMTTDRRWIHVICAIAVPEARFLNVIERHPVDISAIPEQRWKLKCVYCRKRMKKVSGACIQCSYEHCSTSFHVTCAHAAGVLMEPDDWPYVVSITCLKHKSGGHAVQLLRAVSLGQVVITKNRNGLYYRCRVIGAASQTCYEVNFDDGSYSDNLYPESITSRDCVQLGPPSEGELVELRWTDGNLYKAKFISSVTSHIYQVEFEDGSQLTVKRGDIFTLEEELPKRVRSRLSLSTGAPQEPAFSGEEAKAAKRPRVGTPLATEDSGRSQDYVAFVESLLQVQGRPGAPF
In words: Epigenetic enzyme assay, Demethylases (KDMs). Type of test: biochemical.

Test [14] deals with T6, FBXL10 (h). As to conditions: read-out: Reference IC50; cited from earlier work.
Test [15] deals with T7, JARID1A (h). As to conditions: read-out: Reference IC50; cited from earlier work.
Test [16] addresses T8, JMJD2B (h). The conditions noted are these: read-out: Reference IC50; cited from earlier work.
Test [17] addresses T9, Sirtuin 6 (h) (Homo sapiens, UniProt Q8N6T7). The experiment in a line: Epigenetic enzyme assay, Sirtuins. In kind it is biochemical. As to conditions: Table 10; read-out: Reference IC50.
The target of test [18] is T9, Sirtuin 6 (h). The conditions noted are these: reference compound; Fluorogenic HDAC 50 μM; 180 min/RT; cited from earlier work.
The target of test [19] is T10, Sirtuin 7 (h) (Homo sapiens, UniProt Q9NRC8).
T10 sequence (Q9NRC8 1-400): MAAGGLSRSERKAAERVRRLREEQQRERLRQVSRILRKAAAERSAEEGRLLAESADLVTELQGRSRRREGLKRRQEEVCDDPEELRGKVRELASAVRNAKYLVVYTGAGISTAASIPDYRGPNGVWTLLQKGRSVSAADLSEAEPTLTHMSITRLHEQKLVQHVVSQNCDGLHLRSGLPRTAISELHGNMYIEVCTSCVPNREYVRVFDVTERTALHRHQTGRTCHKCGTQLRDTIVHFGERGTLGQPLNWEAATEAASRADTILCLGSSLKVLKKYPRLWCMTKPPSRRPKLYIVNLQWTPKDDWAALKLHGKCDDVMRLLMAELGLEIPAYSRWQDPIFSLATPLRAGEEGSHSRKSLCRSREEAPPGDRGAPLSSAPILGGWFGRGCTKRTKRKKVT
In words: Epigenetic enzyme assay, Sirtuins. In kind it is biochemical. As to conditions: Table 10; read-out: Reference IC50.

For test [20], the target named is T10, Sirtuin 7 (h). The conditions noted are these: reference compound; fluorogenic HDAC 25 μM; 60 min/37° C.; cited from earlier work.

Like-named read-outs stand apart in the source and are kept apart here.

T7 sequence (P29375 whole entry): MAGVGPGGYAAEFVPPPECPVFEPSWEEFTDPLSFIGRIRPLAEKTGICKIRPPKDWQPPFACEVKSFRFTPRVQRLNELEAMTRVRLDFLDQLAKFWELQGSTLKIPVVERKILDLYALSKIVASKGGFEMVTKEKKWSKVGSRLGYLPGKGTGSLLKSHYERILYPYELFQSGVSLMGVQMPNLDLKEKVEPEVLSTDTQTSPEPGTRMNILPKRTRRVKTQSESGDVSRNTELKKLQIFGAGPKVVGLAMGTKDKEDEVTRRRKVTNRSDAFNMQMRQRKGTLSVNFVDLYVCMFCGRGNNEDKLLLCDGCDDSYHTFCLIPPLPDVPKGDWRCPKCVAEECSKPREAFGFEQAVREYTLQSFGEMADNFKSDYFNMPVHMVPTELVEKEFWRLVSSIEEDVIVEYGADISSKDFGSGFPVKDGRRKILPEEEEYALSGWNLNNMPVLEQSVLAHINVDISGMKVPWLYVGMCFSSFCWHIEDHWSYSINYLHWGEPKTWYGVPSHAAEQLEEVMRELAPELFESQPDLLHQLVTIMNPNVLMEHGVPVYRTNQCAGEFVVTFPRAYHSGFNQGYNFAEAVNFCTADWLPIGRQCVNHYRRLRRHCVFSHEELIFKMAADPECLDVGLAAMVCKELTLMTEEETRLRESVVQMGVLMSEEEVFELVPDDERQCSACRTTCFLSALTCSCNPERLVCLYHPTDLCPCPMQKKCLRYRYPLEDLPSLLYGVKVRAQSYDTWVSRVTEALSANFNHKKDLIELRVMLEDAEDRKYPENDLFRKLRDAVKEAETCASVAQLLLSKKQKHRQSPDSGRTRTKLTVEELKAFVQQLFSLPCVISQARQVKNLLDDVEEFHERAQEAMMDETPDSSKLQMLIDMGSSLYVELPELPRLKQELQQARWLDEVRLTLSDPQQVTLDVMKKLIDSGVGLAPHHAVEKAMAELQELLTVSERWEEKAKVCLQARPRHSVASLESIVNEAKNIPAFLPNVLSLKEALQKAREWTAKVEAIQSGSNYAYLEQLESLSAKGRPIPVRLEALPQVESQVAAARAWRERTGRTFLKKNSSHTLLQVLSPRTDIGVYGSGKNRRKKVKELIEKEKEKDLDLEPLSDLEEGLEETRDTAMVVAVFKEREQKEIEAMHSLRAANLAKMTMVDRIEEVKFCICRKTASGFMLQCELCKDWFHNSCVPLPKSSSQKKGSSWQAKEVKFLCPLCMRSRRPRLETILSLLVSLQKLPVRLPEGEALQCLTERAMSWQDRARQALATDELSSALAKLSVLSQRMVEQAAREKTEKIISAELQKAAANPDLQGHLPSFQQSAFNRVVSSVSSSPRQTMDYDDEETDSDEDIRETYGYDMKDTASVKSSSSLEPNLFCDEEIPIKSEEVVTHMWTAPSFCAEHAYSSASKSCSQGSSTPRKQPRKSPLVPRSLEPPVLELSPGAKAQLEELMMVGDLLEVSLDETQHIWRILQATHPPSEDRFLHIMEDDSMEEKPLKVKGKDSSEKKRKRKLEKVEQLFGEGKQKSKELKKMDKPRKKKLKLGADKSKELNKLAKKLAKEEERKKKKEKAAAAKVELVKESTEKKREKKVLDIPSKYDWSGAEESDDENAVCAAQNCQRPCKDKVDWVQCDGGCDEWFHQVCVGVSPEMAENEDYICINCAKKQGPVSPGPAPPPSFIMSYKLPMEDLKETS
T5 sequence (Q92830 whole entry): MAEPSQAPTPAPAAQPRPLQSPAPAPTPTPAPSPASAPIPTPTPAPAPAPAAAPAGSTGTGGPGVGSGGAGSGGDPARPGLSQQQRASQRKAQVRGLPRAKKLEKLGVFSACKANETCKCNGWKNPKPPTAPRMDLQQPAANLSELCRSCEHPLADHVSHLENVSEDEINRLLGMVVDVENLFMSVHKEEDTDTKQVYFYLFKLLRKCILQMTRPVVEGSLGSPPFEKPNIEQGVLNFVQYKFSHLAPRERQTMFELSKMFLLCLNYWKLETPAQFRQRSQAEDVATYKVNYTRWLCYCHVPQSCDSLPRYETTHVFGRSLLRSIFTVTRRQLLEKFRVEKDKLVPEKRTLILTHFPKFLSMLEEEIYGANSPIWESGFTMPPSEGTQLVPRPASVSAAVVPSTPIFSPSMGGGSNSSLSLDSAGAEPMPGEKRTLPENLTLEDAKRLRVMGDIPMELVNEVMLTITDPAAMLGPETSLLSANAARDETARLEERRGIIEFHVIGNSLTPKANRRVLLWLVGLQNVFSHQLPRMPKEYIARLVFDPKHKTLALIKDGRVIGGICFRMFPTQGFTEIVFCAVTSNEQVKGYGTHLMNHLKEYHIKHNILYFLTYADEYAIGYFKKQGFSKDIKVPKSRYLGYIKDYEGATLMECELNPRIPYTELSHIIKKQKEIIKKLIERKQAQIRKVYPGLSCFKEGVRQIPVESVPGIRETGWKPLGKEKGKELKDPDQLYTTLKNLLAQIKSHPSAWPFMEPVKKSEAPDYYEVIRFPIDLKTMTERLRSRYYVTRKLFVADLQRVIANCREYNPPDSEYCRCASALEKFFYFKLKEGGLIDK
T9 sequence (Q8N6T7 whole entry): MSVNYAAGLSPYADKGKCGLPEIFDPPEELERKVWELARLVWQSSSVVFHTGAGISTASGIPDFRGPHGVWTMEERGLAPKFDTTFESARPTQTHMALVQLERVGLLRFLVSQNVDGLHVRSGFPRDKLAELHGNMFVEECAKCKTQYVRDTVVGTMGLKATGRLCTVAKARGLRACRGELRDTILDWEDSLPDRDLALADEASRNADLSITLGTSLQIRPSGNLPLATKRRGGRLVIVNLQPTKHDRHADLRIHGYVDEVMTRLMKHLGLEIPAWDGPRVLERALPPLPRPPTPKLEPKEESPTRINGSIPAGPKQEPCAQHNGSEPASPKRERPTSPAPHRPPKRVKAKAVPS

Consider `Cc1sc2c(c1C)C(c1ccc(Cl)cc1)=N[C@@H](CC(=O)OC(C)(C)C)c1nnc(C)n1-2` [JQ-1, reference compound], for which the IC50 – broadly, the concentration that inhibits the measured activity by half – in [1] (Table 4, read-out: Reference IC50) was 13.8 µM; in test [1] (Table 9, inhibition/concentration-response curve, read-out: IC50), 8.7 µM; in [2], 45 µM; in test [3], 12 µM; in test [4] it was 70 µM; in test [5], 13.8 µM. In addition, the IC50 in test [6] was 45 µM; in [7], 12 µM; in test [8], 70 µM.

For `CCCCCCCCCCCCCCCc1cccc(O)c1C(=O)O` [Anacardic Acid, reference compound], the IC50 in test [9] and in [10] was 4.7 µM each time.

On to `O=C(O)c1ccnc(C(=O)O)c1` [2,4 PDCA, reference compound], for which the IC50 in test [11] is 0.61 µM; in [12] (read-out: IC50), 0.099 µM; in [12] (read-out: Reference IC50), 0.18 µM; in [13] (read-out: IC50), 0.095 µM; in [13] (read-out: Reference IC50), 0.14 µM; in [14], 0.61 µM. Further, the IC50 in test [15] was 0.18 µM; in [16], 0.14 µM.

Turning to `NC(=O)C1CCCc2c1[nH]c1ccc(Cl)cc21` (racemic) [EX-527, reference compound], the IC50 in test [17] and in test [18] was 550 µM each time.

As to `O=C1c2ccccc2C(=O)c2c(NCCc3ccc(O)cc3)ccc(NCCc3ccc(O)cc3)c21` [JFD00244, reference compound], the IC50 in test [19] and in test [20] was 1300 µM in each case.
